In patent EP0840609B1, “USE OF UNSUBSTITUTED AND SUBSTITUTED N-(PYRROL-1-YL)PYRIDINAMINES AS ANTICONVULSANT AGENTS” (Aventis Pharmaceuticals Inc., priority 1995, dated 1997):
Where a name gives a salt, the structure may show the parent alone.

The compounds below were run on brain membrane sodium channels (assay: not given). Settings: vesicular preparation of male Wistar rat cortices, 25 nM [^3H]batrachotoxin, 60 minutes at 25°C; read-out: Inhibition of [^3H]Batrachotoxin Binding IC50.

Q: With `Cc1cn(Nc2ccncc2F)c2ccccc12` [N-(3-Fluoro-4-pyridinyl)-3-methyl-1H-indol-1-amine] as the compound, how does the IC50 read?
A: The IC50 was 42 µM.

Q: Which IC50 does the source give for `CCCN(c1ccncc1)n1ccc2ccccc21.Cl` [N-Propyl-N-(4-pyridinyl)-1H-indol-1-amine hydrochloride] here?
A: Its IC50 is 5 µM.

Q: How did the IC50 turn out when `Cc1cn(Nc2ccncc2Cl)c2ccccc12` [N-(3-Chloro-4-pyridinyl)-3-methyl-1H-indol-1-amine hydrochloride] was run?
A: The IC50 was 29 µM.

Q: For `CC(C)CN(c1ccncc1)n1ccc2ccccc21` [N-(2-Methylpropyl)-N-(4-pyridinyl)-1H-indol-1-amine maleate], which IC50 is on record?
A: The IC50 was 9 µM.

Q: For `CCCN(c1ccncc1Cl)n1cc(C)c2ccccc21` [N-(3-Chloro-4-pyridinyl)-3-methyl-N-propyl-1H-indol-1-amine], which IC50 is on record?
A: Its IC50 is 44 µM.

Q: `Cc1cn(Nc2ccncc2)c2ccccc12.O=C(O)C(=O)O` [3-Methyl-N-(4-pyridinyl)-1H-indol-1-amine oxalate] was tested. Which IC50 did it give?
A: Its IC50 is 11 µM.

Q: With `Nc1cnccc1Nn1ccc2ccccc21` [4-[N-(1H-indol-1-yl)]-3,4-pyridinamine, 4-[N-(1H-indol-1-yl)]-3,4-pyridinamine hemihydrate] as the compound, how does the IC50 read?
A: The IC50 was 22 µM.

Q: How did the IC50 turn out when `c1cncc(Nn2ccc3ccccc32)c1` [N-(3-pyridinyl)-1H-indol-1-amine, N-(3-Pyridinyl)-1H-indol-1-amine] was run?
A: The IC50 was 12 µM.

Q: For `Clc1cnccc1Nn1ccc2ccccc21` [N-(3-Chloro-4-pyridinyl)-1H-indol-1-amine hydrochloride], which IC50 is on record?
A: Its IC50 is 14 µM.

Q: `CC(C)N(c1ccncc1)n1ccc2ccccc21` [N-(1-Methylethyl)-N-(4-pyridinyl)-1H-indol-1-amine maleate] was tested. Which IC50 did it give?
A: Its IC50 is 9 µM.

Q: Which IC50 does the source give for `CCCN(c1ccncc1)n1cccc1` [N-Propyl-N-(1H-pyrrol-1-yl)-4-pyridinamine hydrochloride] here?
A: Its IC50 is 66 µM.

Q: Which IC50 does the source give for `NC(=O)N1c2ccccc2C=Cc2ccccc21` [Carbamazepine, reference compound] here?
A: Its IC50 is 94 µM.

Q: How did the IC50 turn out when `CCCN(c1ccncc1)n1ccc2cc(Br)ccc21` [5-Bromo-N-propyl-N-(4-pyridinyl)-1H-indol-1-amine maleate] was run?
A: The IC50 was 14 µM.

Q: `CCCN(c1ccncc1Cl)n1ccc2ccccc21` [N-(3-Chloro-4-pyridinyl)-N-propyl-1H-indol-1-amine hydrochloride] was tested. Which IC50 did it give?
A: Its IC50 is 32 µM.

Q: `c1ccc(Nn2ccc3ccccc32)nc1` [N-(2-pyridinyl)-1H-indol-1-amine, N-(2-Pyridinyl)-1H-indol-1-amine] was tested. Which IC50 did it give?
A: The IC50 was 12 µM.

Q: For `CCCN(c1ccncc1F)n1cccc1` [3-Fluoro-N-propyl-N-(1H-pvrrol-1-yl)-4-pyridinamine hydrochloride], which IC50 is on record?
A: The IC50 was 46 µM.

Q: `Cc1cnccc1Nn1ccc2ccccc21` [N-(3-Methyl-4-pyridinyl)-1H-indol-1-amine] was tested. Which IC50 did it give?
A: Its IC50 is 21 µM.

Q: For `CCCN(c1ccncc1)n1cc(CN)c2ccccc21` [3-Aminomethyl-N-propyl-N-(4-pyridinyl)-1H-indol-1-amine dihydrochloride], which IC50 is on record?
A: The IC50 was 10 µM.

Q: With `CCCN(c1ccncc1)n1cc(C)c2cc(O)ccc21` [3-Methyl-1-(propyl-4-pyridinylamino)-1H-indol-5-ol hemi-oxalate] as the compound, how does the IC50 read?
A: The IC50 was 21 µM.

Q: For `CCc1cn(N(C)c2ccncc2)c2ccccc12` [3-Ethyl-N-methyl-N-(4-pyridinyl)-1H-indol-1-amine hydrochloride], which IC50 is on record?
A: Its IC50 is 12 µM.

Q: With `Cc1cn(Nc2ccncc2)c2ccc(O)cc12` [3-Methyl-1-(4-pyridinylamino)-1H-indol-5-ol] as the compound, how does the IC50 read?
A: The IC50 was 20 µM.

Q: Which IC50 does the source give for `CCCN(c1ccncc1F)n1cc(C)c2ccccc21` [N-(3-Fluoro-4-pyridinyl)-N-propyl-3-methyl-1H-indol-1-amine hydrochloride] here?
A: Its IC50 is 31 µM.

Q: `CCCN(c1ccncc1)n1cc(Cl)c2ccccc21` [3-Chloro-N-propyl-N-(4-pyridinyl)-1H-1-amine hydrochloride] was tested. Which IC50 did it give?
A: The IC50 was 10 µM.

Q: How did the IC50 turn out when `Brc1ccc2c(ccn2Nc2ccncc2)c1` [5-bromo-N-(4-pyridinyl)-1H-indol-1-amine, 5-Bromo-N-(4-pyridinyl)-1H-indol-1-amine maleate] was run?
A: The IC50 was 23 µM.

Q: With `c1ccn(Nc2ccncc2)c1` [N-(1H-pyrrol-1-yl)-4-pyridinamine, N-(1H-Pyrrol-1-yl)-4-pyridinamine] as the compound, how does the IC50 read?
A: The IC50 was 40 µM.

Q: How did the IC50 turn out when `c1ccc2c(c1)ccn2Nc1ccncc1` [N-(4-pyridinyl)-1H-indol-1-amine, N-(4-Pyridinyl)-1H-indol-1-amine maleate] was run?
A: Its IC50 is 18 µM.

Q: `NCCc1cn(Nc2ccncc2)c2ccccc12` [3-Aminoethyl-N-(4-pyridinyl)-1H-indol-1-amine dimaleate] was tested. Which IC50 did it give?
A: Its IC50 is 44 µM.

Q: With `Clc1cn(Nc2ccncc2)c2ccccc12` [3-Chloro-N-(4-pyridinyl)-1H-indol-1-amine salicylate] as the compound, how does the IC50 read?
A: Its IC50 is 11 µM.

Q: How did the IC50 turn out when `CCN(c1ccncc1)n1cccc1` [N-Ethyl-N-(1H-pyrrol-1-yl)-4-pyridinamine hydrochloride] was run?
A: The IC50 was 86 µM.

Q: For `CCCN(c1ccncc1F)n1ccc2cc(O)ccc21` [1-[Propyl-4-(3-fluoropyridinyl)amino]-1H-indol-5-ol hydrochloride], which IC50 is on record?
A: Its IC50 is 70 µM.

Each compound was assayed on Male CD-1 mice (assay: Supramaximal electroshock in mice (block of tonic seizure / extensor tonus)). Settings: Mus musculus, ip, @ 30 mpk, intraperitoneally, read-out: Inhibition of supramaximal electroshock (protection, normalized percent inhibition).
Type: in vivo
Description: This procedure is used as to predict anticonvulsant activity of a test compound in vivo by its ability to block a full tonic seizure induced by a supramaximal electroshock stimulation as an indication of efficacy in preventing grand mal seizures.
Male CD-1 mice (Charles River) weighing 18-30 grams were housed in accordance with the "NIH Guide to Care and Use of Laboratory Animals" (National Institutes of Health Care Publication 85-23, revised 1985) with a 12 hour light/dark cycle and free access to food and water. On the day of testing, animals are brought to the laboratory and randomly assigned to groups of six for the time course experiments and to test groups of ten for the dose-response experiments.
The apparatus used for the test was the Wahlquist Electroshock Stimulator (Model H), which has a power source of 120 volts ac. A current of 15.5 mA lasting for 300 msec was delivered by placing the terminals of the stimulator across the eyes of the animal. This stimulus results in a tonic seizure, defined as a brief period of hindlimb flexion followed by a prolonged period of hindlimb extension. […] Protection is calculated as a normalized percent inhibition relative to a vehicle treated control group.
A time course is performed to determine the peak time of drug action and then a dose response performed at the peak time to determine drug potency. Mice are dosed in a randomized fashion using a total of 4 dose groups and one vehicle control group. The ED50 value and 95% confidence limits are calculated by a computerized Litchfield and Wilcoxon analysis.
Drugs are prepared dissolved in distilled water and, if insoluble a drop of surfactant is added.. Drugs are routinely administered intraperitoneally for this test and given in a dosage volume of 10 ml/kg.

Q: For `CCCN(c1ccncc1F)n1cc(C)c2ccccc21` [N-(3-Fluoro-4-pyridinyl)-N-propyl-3-methyl-1H-indol-1-amine hydrochloride], which inhibition at 30 mg/kg is on record?
A: Its inhibition at 30 mg/kg is 50%.

Same assay, conditions: Mus musculus, ip, @ 60 mpk, intraperitoneally, read-out: Inhibition of supramaximal electroshock (protection, normalized percent inhibition)

Q: Which inhibition at 60 mg/kg does the source give for `CCCN(c1ccncc1F)n1cc(C)c2ccccc21` [N-(3-Fluoro-4-pyridinyl)-N-propyl-3-methyl-1H-indol-1-amine hydrochloride] here?
A: Its inhibition at 60 mg/kg is 50%.

Same assay, conditions: Mus musculus, ip, intraperitoneally, dose response at peak time, read-out: INHIBITION OF SUPRAMAXIMAL ELECTROSHOCK IN MICE ED50

Q: With `CCCN(c1ccncc1)n1ccc2ccccc21.Cl` [N-Propyl-N-(4-pyridinyl)-1H-indol-1-amine hydrochloride] as the compound, how does the ED50 read?
A: The ED50 was 14.2 mg/kg.

Q: Which ED50 does the source give for `Cc1cn(Nc2ccncc2)c2ccccc12.O=C(O)C(=O)O` [3-Methyl-N-(4-pyridinyl)-1H-indol-1-amine oxalate] here?
A: The ED50 was 13 mg/kg.

Q: For `NC(=O)N1c2ccccc2C=Cc2ccccc21` [Carbamazepine, reference compound], which ED50 is on record?
A: The ED50 was 18.6 mg/kg.

Q: With `CCCN(c1ccncc1)n1c(C)ccc1C.O=C(O)/C=C\C(=O)O` [N-(2,5-Dimethyl-1H-pyrrol-1-yl)-N-(n-propyl)-4-pyridinamine maleate] as the compound, how does the ED50 read?
A: Its ED50 is 50.1 mg/kg.

Q: With `O=C1NC(=O)C(c2ccccc2)(c2ccccc2)N1` [Diphenylhydantoin, reference compound] as the compound, how does the ED50 read?
A: Its ED50 is 9.4 mg/kg.

Same assay, conditions: intraperitoneally, dose response at peak time

Q: With `CCCN(c1ccncc1)n1cc(C)c2ccccc21.O=C(O)/C=C\C(=O)O` [3-Methyl-N-propyl-N-(4-pvridinyl)-1H-indol-1-amine maleate] as the compound, how does the “INHIBITION OF SUPRAMAXIMAL ELECTROSHOCK IN MICE ED50” value read?
A: The value was 14.4 mg/kg.
